Assay results from patent publication US4376783A, “Acylated guanidines and medicaments containing them” (Compagnie Francaise de Sucerie, priority 1980, dated 1983).
Entries after “also recorded” stand apart in the source; their conditions may differ.

What was measured:
[1] = tested on: isoproterenol-induced cardio-acceleration and hypotension; test: Beta-blocking and sympathomimetic activity against isoproterenol-induced cardio-acceleration and hypotension in anaesthetised dogs; type: in vivo, dog; conditions: for beta-blocking effect: isoproterenol perfusion 0.2 mcg/kg/min; for beta-blocking effect / sympathomimetic activity: product perfused i.v. at 25 mcg/kg/min, compared with Pindolol; for sympathomimetic activity: seen on cessation of isoprenaline; for beta-blocking properties relative to those of Pindolol: % of the beta-blocking properties of Pindolol, 25 mcg/kg/min i.v.
Method: These tests have been carried out on dogs (of both sexes) of weight comprised between 10 and 25 kg. These dogs were anesthetised by an injection of Pentobarbital (0.1 ml/kg of a 6% solution) and Chloralose (80 mg/kg). The blood pressure was recorded by means of a catheter inserted into the tibial artery and connected to a pressure cell, this pressure being recorded on a Beckman dynograph at the same time as an electrocardiogram; the latter enables the heart rhythm and the heart rate to be checked, integrated by a cardiotachometer.
The blood pressure and the electrocardiogram were first followed for five minutes. Then an isoproterenol solution was perfused into a cephalic vein, at the rate of 0.2 mcg/kg/min, namely 1 ml/min. After fiveperfusing for five minutes, the heart reached a tachycardiac level. At this moment, another perfusion was connected (into the cephalic vein of the other paw) of a Pindolol solution or of the product under study. The compounds of the invention was solubilized in 4 ml of DMF. The volume necessary for the perfusion was obtained by completing it with a 25% DMF solution in distilled water. All the products were injected at the rate of 25 mcg/kg/min. The
The extent to which the products were capable of antagonising the cardio-acceleration on the one hand and the hypotension on the other hand was examined.
After 35 minutes of perfusion, the isoprenaline injection was stopped. The Pindolol perfusion or that of the compound under study was interrupted after 40 minutes.

[2] = tested on: beta 1 (isolated atria); test: Tests on isolated atria (cardiac level)
[3] = tested on: rats; test: Six-month toxicological test in rats; type: in vivo; conditions: rats of both sexes, daily for six months
Method: (§1) Also, toxicological tests have been carried out on 32 dogs (of both sexes) and 160 rats (of both sexes) for six months and have shown that S.C.S. 149 may be tolerated by the rats at a maximum daily dose of 500 mg/kg and by the dogs at a maximum daily dose of 100 mg/kg.

[4] = Acute toxicity by the intravenous route in the mouse; conditions: in vivo; for LD50 at 48 h: 48 hours after treatment; for LD50 at 336 h: 14 days after treatment
Method: (§2) As for its toxicity, for the determination of which experiments were carried out on two animal species, namely the rat of the OFA strain and the mouse of the OF1 strain, by two routes of administration namely the oral route and the intravenous route, the results obtained were as follows:
ACUTE TOXICITY OF THE PRODUCT S.C.S. 149 ADMINISTERED BY THE INTRAVENOUS ROUTE IN THE MOUSE
ACUTE TOXICITY OF THE S.C.S. 149 PRODUCT ADMINISTERED BY THE INTRAVENOUS ROUTE IN THE MOUSE
LD 50 14 days after treatment.
(§3) For the intravenous route, the product was solubilized in:
sterile water in the mouse
(§4) The volume administered was:
(§5) The product was injected at the level of the caudal vein. Before administration of the product, the animals were kept fasting for 16 to 17 hours.

[5] = tested on: rat; test: Acute toxicity by the oral route in the rat; type: in vivo
Method: as §2
(§6) ACUTE TOXICITY OF THE S.C.S. 149 PRODUCT ADMINISTERED BY THE ORAL ROUTE IN THE RAT
(§7) Death occured within 48 hours after the treatment.
(§8) The product was solubilized, for oral administration, in 2% CMC in water; the volume administered was 25 ml/kg in the mouse and 5 ml/kg in the rat for the dose of 1 g/kg, 10 ml/kg for 2 g/kg and 20 ml/kg for 3.5 and 5 g/kg.
(§9) The product was administered by oesophagal intubation.
as §5

[6] = Acute toxicity by the oral route in the rat; type: in vivo; conditions: in vivo, po, LD 50
Method: as §2, §6, §7, §8, §9, §5

[7] = tested on: rat; test: Acute toxicity by the intravenous route in the rat; type: in vivo
Method: as §2
(§10) ACUTE TOXICITY OF THE PRODUCT S.C.S. 149 ADMINISTERED BY THE INTRAVENOUS ROUTE IN THE RAT
(§11) Death took place within 48 hours after administration of the product.
as §3
(§12) PEG 400+sterile water (1/3+2/3) in the rat.
as §4, §5

[8] = Acute toxicity by the intravenous route in the rat; type: in vivo; conditions: in vivo, iv, LD 50
Method: as §2, §10, §11, §3, §12, §4, §5

[9] = tested on: isolated bronchi; test: Tests on isolated bronchi (bronchial level)
[10] = tested on: dogs; test: Six-month toxicological test in dogs; type: in vivo; conditions: dogs of both sexes, daily for six months
Method: as §1

[11] = tested on: mouse; test: Acute toxicity by the oral route in the mouse; type: in vivo
Method: as §2
(§13) ACUTE TOXICITY OF THE PRODUCT S.C.S. 149 A ADMINISTERED BY THE ORAL ROUTE IN THE MOUSE
(§14) Death took place within 48 hours after treatment
as §8, §9, §5

[12] = Acute toxicity by the oral route in the mouse; type: in vivo; conditions: in vivo, po, LD 50
Method: as §2, §13, §14, §8, §9, §5

[13] = Pharmacological tests: cardiac stimulant effect; type: in vivo; conditions: at relatively high doses (of the order of 50 mg)
Description: Pharmacological tests have shown also that:

[14] = tested on: isoproterenol-induced cardio-acceleration and hypotension; conditions: statement on the comparison drug; cited from earlier work

With `CCOC(=O)NC(=N)N(CC(O)COc1ccc(Cl)cc1)C(C)C` (stereo not drawn) [SCS 148] the beta-blocking effect [1] was “certain betablocking action masked by intrinsic sympathomimetic properties”, the sympathomimetic activity [1] was “intrinsic sympathomimetic properties” and the sympathomimetic activity ([1]; listed as 148) was “sympathomimetic action”.

For `Cc1ccccc1OCC(O)CN(C(=N)NC(=O)c1ccccc1)C(C)C` (stereo not drawn) [SCS 149], the “beta 1 blocking activity, type at the cardiac level” value [2] was “beta 1 blocking activity of competitive type”, the “beta-blocking properties relative to those of Pindolol” value [1] was “about 60%” and the beta-blocking effect [1] was “undisputable beta-blocking properties”. The beta-blocking effect ([1]; listed as 149) was “beta-blocking effects”, the sympathomimetic activity [1] was “intrinsic sympathomimetic effects” and the “maximum tolerated daily dose” value [3] was 500 mg/kg. It also gave an LD50 at 48 h ([4]; female mice) of 38.8 mg/kg, an LD50 at 336 h ([4]; female mice) of 38.1 mg/kg and an LD50 at 48 h ([4]; male mice) of 37.2 mg/kg. The LD50 at 336 h ([4]; male mice) was 37.2 mg/kg, the “LD 50” value ([5]; in vivo, po, 48 h) was 2932.6 mg/kg and the “time of death after treatment” value ([5]; oral) was at most 48 h. The LD50 at 48 h [6] was 3330 mg/kg, the “LD 50” value ([7]; in vivo, iv, 48 h) was 40.37 mg/kg and the “time of death after administration” value ([7]; intravenous) was at most 48 h. For the same molecule, the LD50 at 48 h [8] was 35.3 mg/kg, the “blocking activity, type at the bronchial level” value [9] was “of the competitive type” and the “maximum tolerated daily dose” value [10] was 100 mg/kg. The “LD 50” value ([11]; in vivo, po, 48 h) was 604.81 mg/kg, the “time of death after treatment” value ([11]; oral) was at most 48 h and the LD50 at 48 h [12] was 560 mg/kg.

In the case of `CCOC(=O)NC(=N)N(CC(O)COc1ccccc1C)C1CCCCC1` (stereo not drawn) [SCS 151], the sympathomimetic activity [1] is reported as “sympathomimetic characteristics” and the sympathomimetic activity ([1]; listed as 151) is reported as “sympathomimetic action”.

With `CCOC(=O)NC(=N)N(CC(O)COc1ccc(Cl)cc1)C1CCCCC1` (stereo not drawn) [SCS 147] the sympathomimetic activity [1] was “sympathomimetic activity still greater than that of the preceding compound” and the sympathomimetic activity ([1]; listed as 147) was “sympathomimetic action”.

With `CCOC(=O)NC(=N)N(CC(O)COc1ccccc1C)C(C)C` (stereo not drawn) [SCS 150] the “beta-blocking properties relative to those of Pindolol” value [1] was “about 70%”, the beta-blocking effect [1] was “adrenergic beta-blocking properties” and the beta-blocking effect ([1]; listed as 150) was “beta-blocking effects”. For the same molecule, the sympathomimetic activity [1] was “intrinsic sympathomimetic effects”.

With `CCCCNC(=O)N(CC(O)COc1cccc2ccccc12)C(C)C` (stereo not drawn) [SCS 128] the cardiac stimulant effect [13] was “cardiac stimulant effects; also recorded: cardiac stimulants”.

In the case of `CC(C)NCC(O)COc1cccc2[nH]ccc12` (stereo not drawn) [Pindolol], the “intrinsic sympathomimetic action among beta-blocking agents currently used in therapeutics” value [14] is given as “intrinsic sympathomimetic action is greatest”.

With `CCOC(=O)NC(=N)N(CC(O)COc1ccccc1Cl)C1CCCCC1` (stereo not drawn) [SCS 146] the sympathomimetic activity [1] was “sympathomimetic action; also recorded: considerable sympathomimetic activity”.

For `CC(C)N(CC(O)COc1cccc2ccccc12)C(N)=O` (stereo not drawn) [SCS 131], the cardiac stimulant effect [13] was “cardiac stimulant effects; also recorded: cardiac stimulants”.
